The term IC50 denotes the concentration that gives 50% inhibition. Lower therefore signals greater potency in that assay.

The target in assay [1] is cGMP-inhibited 3',5'-cyclic phosphodiesterase 3B (Homo sapiens, UniProt Q13370). Put plainly: (§1) PDE3B Enzyme Inhibition: The commercially available 3H-cAMP Scintillation Proximity Assay (SPA, Perkin Elmer) system was used for enzyme inhibition studies. For the determination of the in vitro effect of example compounds on the PDE3B reactions 2 μl of the respective example compound solution in DMSO (serial dilutions) were placed in wells of microtiter plates (Isoplate-96/200W; Perkin Elmer). 50 μl of a dilution of PDE3B cell extract from Sf9 cells overexpressing human full length PDE3B (SB Drug Discovery, UK) in buffer A (50 mM Tris/HCl pH 7.5, 8.3 mM MgCl2, 1.7 mM EDTA, 0.2% BSA) was added. The dilution of the PDE3B cell extract was chosen such that the reaction kinetics was linear and less than 70% of the substrate was consumed (typical dilution 1:6000). The reaction was started by addition of 50 μl (0.025 μCi) of 1:2000 in buffer A w/o BSA diluted substrate [8-3H]adenosine 3′, 5′-cyclic phosphate (1 μCi/μl; Perkin Elmer). After incubation at room temperature for 60 min, the reaction was stopped by addition of 25 μl of a suspension containing 18 mg/ml yttrium scintillation proximity beads (Perkin Elmer) in water. The microtiter plates were sealed and measured in a Microbeta scintillation counter (PerkinElmer Wallac). IC50 values were determined from sigmoidal curves by plotting percentage PDE3B activity vs log compound concentration.
cGMP-inhibited 3',5'-cyclic phosphodiesterase 3B, sequence (Q13370 whole entry): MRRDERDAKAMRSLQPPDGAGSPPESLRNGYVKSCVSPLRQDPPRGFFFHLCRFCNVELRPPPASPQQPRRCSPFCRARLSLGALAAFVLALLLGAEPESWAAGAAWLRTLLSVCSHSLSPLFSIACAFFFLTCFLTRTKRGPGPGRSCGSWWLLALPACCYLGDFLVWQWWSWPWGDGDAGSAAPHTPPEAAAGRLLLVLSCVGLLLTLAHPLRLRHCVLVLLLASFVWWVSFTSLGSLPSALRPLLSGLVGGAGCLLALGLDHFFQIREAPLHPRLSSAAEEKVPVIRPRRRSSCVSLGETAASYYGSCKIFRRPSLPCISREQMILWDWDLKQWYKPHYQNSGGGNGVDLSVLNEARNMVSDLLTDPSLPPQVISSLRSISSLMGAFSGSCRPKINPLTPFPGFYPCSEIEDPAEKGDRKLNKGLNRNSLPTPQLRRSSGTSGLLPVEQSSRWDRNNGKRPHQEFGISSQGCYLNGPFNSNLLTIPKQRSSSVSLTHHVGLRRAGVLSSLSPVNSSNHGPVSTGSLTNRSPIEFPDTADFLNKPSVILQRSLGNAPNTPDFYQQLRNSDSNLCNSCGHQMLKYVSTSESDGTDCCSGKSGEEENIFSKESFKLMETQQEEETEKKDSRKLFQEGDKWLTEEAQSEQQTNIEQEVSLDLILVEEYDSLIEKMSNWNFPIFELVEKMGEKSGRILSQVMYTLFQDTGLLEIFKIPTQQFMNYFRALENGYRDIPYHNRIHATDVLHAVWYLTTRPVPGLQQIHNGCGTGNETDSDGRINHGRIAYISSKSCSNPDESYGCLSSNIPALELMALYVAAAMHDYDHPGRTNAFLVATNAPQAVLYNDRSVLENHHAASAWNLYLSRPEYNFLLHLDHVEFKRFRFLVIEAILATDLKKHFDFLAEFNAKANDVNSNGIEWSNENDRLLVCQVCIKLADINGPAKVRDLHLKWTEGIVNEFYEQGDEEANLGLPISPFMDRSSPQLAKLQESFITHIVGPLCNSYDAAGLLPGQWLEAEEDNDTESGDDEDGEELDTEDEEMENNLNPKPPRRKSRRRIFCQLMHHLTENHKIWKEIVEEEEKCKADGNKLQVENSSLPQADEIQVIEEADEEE

Assay [2] has as its target cGMP-inhibited 3',5'-cyclic phosphodiesterase 3A (Homo sapiens, UniProt Q14432). Described as §1, with “PDE3A” for “PDE3B”, “1:5000).” for “1:6000).”.

cGMP-inhibited 3',5'-cyclic phosphodiesterase 3A, sequence (Q14432 whole entry): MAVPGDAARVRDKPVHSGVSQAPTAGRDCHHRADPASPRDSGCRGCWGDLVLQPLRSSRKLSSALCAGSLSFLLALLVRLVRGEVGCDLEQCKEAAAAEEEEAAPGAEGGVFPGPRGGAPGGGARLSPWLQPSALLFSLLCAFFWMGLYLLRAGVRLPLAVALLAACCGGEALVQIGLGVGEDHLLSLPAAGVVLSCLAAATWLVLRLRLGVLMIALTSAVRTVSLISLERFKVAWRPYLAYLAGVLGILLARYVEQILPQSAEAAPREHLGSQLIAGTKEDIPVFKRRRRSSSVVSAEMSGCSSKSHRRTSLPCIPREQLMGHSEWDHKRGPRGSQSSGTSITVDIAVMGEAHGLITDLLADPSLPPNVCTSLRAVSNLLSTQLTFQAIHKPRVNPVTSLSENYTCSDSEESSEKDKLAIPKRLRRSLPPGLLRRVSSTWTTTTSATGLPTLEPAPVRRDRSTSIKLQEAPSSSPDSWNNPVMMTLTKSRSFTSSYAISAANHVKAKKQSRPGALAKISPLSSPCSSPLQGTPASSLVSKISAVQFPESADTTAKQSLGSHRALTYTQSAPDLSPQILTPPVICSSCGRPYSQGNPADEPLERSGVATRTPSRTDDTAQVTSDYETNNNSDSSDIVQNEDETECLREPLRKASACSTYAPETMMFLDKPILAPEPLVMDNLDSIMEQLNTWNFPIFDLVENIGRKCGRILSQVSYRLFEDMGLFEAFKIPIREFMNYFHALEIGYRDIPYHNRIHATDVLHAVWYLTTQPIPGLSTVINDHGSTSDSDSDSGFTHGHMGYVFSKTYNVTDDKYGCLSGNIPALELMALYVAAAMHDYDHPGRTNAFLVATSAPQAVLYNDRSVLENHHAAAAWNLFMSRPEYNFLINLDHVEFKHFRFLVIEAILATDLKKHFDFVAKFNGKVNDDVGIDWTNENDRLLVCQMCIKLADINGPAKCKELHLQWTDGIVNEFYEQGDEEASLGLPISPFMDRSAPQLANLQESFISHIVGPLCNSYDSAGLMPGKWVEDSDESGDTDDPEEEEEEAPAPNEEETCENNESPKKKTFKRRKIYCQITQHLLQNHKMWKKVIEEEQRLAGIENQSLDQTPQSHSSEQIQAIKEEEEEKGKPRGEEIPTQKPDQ

In the case of `C[C@@H]1OC(=O)NN=C1c1ccc(N2CC(F)(F)C2)c(C(F)(F)F)c1`, the half-maximal inhibitory concentration (IC50) in assay [1] was found to be 0.023 µM; in assay [2] it was 0.02 µM.
Turning to `Cc1cc(C2=NNC(=O)OC2)ccc1-c1cccnc1`, the IC50 is 0.044 µM in assay [1] and 0.11 µM in assay [2].
On the same counts, the results for `C[C@@H]1OC(=O)NN=C1c1ccc(-n2ccc(C(F)(F)F)n2)c(C(F)(F)F)c1` are 0.383 µM and 0.657 µM.
With `C[C@@H]1OC(=O)NN=C1c1ccc(N2CC(C)(O)C2)c(C(F)(F)F)c1`, the IC50 in assay [1] came out at 0.009 µM; in assay [2], 0.011 µM.

The values above are taken from ChEMBL document CHEMBL5729281, “Dihydrooxadiazinones” (2022).
